Reference: US10011607B2, “Ethynyl derivatives” (Hoffmann-La Roche Inc., priority 2015, dated 2018)

Target: human mGlu4 receptor (Homo sapiens (Human), UniProt Q14833)
Test: Ca2+ mobilization in vitro assay on recombinant human mGlu4 expressed in HEK293 cells (PAM)
Type: cell-based
Settings: for Emax: HEK293, maximal response in % of maximal stimulatory effect of saturating L-AP4, read-out: Eff. (%); for EC50: HEK293 cells, human mGlu4, in presence of EC20 of L-AP4, read-out: EC50 (nM) mGlu4PAM
Text: FIG. 1: Illustrates the experimental outline for mGlu4 PAM Ca^2+ mobilization screening assay and the determination of EC50 and % Emax values. […] A depression of the signal observed after addition of the EC20 concentration of L-AP4 was indicative of an inhibitory activity of the test compound.
Determination of EC50 Values Using a Ca2+ Mobilization In Vitro Assay on Recombinant Human mGlu4 Expressed in HEK293 Cells:
A monoclonal HEK-293 cell line stably transfected with a cDNA encoding for the human mGlu4 receptor was generated; for the work with mGlu4 Positive Allosteric Modulators (PAMs), a cell line with low receptor expression levels and low constitutive receptor activity was selected to allow the differentiation of agonistic versus PAM activity. Cells were cultured according to standard protocols (Freshney, 2000) in Dulbecco's Modified Eagle Medium with high glucose supplemented with 1 mM glutamine, 10% (vol/vol) heat-inactivated bovine calf serum, Penicillin/Streptomycin, 50 μg/ml hygromycin and 15 μg/ml blasticidin (all cell culture reagents and antibiotics from Invitrogen, Basel, Switzerland).
About 24 hrs before an experiment, 5×10^4 cells/well were seeded in poly-D-lysine coated, black/clear-bottomed 96-well plates. The cells were loaded with 2.5 μM Fluo-4AM in loading buffer (1×HBSS, 20 mM HEPES) for 1 hr at 37° C. and washed five times with loading buffer. The cells were transferred into a Functional Drug Screening System 7000 (Hamamatsu, Paris, France), and 11 half logarithmic serial dilutions of test compound at 37° C. were added and the cells were incubated for 10-30 min. with on-line recording of fluorescence. Following this pre-incubation step, the agonist (2S)-2-amino-4-phosphonobutanoic acid (L-AP4) was added to the cells at a concentration corresponding to EC20 with on-line recording of fluorescence; in order to account for day-to-day variations in the responsiveness of cells, the EC20 of L-AP4 was determined immediately ahead of each experiment by recording of a full dose-response curve of L-AP4.
Responses were measured as peak increase in fluorescence minus basal (i.e. fluorescence without addition of L-AP4), normalized to the maximal stimulatory effect obtained with saturating concentrations of L-AP4. Graphs were plotted with the % maximal stimulatory using XLfit, a curve fitting program that iteratively plots the data using Levenburg Marquardt algorithm. The single site competition analysis equation used was y=A+((B−A)/(1+((x/C)D))), where y is the % maximal stimulatory effect, A is the minimum y, B is the maximum y, C is the EC50, x is the log 10 of the concentration of the competing compound and D is the slope of the curve (the Hill Coefficient). From these curves the EC50 (drug concentration at which 50% of the maximal receptor activation was achieved), the Hill coefficient as well as the maximal response in % of the maximal stimulatory effect obtained with saturating concentrations of L-AP4 were calculated (see FIG. 1).

Chain of human mGlu4 receptor (Q14833 33-912): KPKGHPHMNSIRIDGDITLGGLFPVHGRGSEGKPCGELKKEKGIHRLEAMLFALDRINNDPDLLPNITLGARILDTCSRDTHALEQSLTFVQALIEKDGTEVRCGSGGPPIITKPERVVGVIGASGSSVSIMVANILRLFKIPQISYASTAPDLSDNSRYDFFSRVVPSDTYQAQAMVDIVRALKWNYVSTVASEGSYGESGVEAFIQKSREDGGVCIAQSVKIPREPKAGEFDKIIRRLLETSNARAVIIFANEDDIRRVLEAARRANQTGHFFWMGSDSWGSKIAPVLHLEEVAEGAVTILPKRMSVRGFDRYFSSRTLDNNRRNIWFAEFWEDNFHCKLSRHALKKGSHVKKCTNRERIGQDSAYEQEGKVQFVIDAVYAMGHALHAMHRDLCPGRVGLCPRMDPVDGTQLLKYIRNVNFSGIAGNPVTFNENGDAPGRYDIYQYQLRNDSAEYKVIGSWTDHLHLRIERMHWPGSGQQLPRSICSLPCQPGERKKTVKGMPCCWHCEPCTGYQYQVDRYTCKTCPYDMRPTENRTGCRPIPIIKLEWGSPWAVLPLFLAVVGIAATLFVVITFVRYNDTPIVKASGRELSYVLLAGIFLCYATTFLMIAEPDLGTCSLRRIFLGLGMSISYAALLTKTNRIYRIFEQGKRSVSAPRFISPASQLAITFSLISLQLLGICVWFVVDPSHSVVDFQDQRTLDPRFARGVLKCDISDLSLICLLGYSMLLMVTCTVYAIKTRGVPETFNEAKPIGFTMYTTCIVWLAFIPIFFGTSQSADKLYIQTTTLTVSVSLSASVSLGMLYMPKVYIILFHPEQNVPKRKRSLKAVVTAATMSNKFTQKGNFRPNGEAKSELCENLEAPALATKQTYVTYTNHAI

Compound | Emax | EC50
CC12CC(=O)N(c3c(F)cc(C#Cc4ccccc4)cc3F)C(=O)N1CCN(Cc1ccccc1Cl)C2=O (racemic) [Example 87, (9aRS)-2-[(2-chlorophenyl)methyl]-7-[2,6-difluoro-4-(2-phenylethynyl)phenyl]-9a-methyl-4,9-dihydro-3H-pyrazino[1,2-c]pyrimidine-1,6,8-trione] | 131% | 87 nM
COCC12CC(=O)N(c3c(F)cc(C#Cc4ccccc4)cc3F)C(=O)N1CCN(c1cccnc1)C2=O (racemic) [Example 102, (9aRS)-7-[2,6-difluoro-4-(2-phenylethynyl)phenyl]-9a-(methoxymethyl)-2-(3-pyridyl)-4,9-dihydro-3H-pyrazino[1,2-c]pyrimidine-1,6,8-trione] | 136% | 129 nM
Cn1cc(CN2CCN3C(=O)N(c4c(F)cc(C#Cc5ccccc5)cc4F)C(=O)CC3(C)C2=O)cn1 (racemic) [Example 96, (9aRS)-7-[2,6-difluoro-4-(2-phenylethynyl)phenyl]-9a-methyl-2-[(1-methylpyrazol-4-yl)methyl]-4,9-dihydro-3H-pyrazino[1,2-c]pyrimidine-1,6,8-trione] | 151% | 214 nM
Cc1nc(N2CCN3C(=O)N(c4c(F)cc(C#Cc5ccccc5)cc4F)C(=O)CC3(C)C2=O)cn1C (racemic) [Example 60, (9aRS)-7-[2,6-difluoro-4-(2-phenylethynyl)phenyl]-2-(1,2-dimethylimidazol-4-yl)-9a-methyl-4,9-dihydro-3H-pyrazino[1,2-c]pyrimidine-1,6,8-trione] | 137% | 145 nM
Cc1cn(C)c(N2CCN3C(=O)N(c4c(F)cc(C#Cc5ccccc5)cc4F)C(=O)CC3(C)C2=O)n1 (racemic) [Example 59, (9aRS)-7-[2,6-difluoro-4-(2-phenylethynyl)phenyl]-2-(1,4-dimethylimidazol-2-yl)-9a-methyl-4,9-dihydro-3H-pyrazino[1,2-c]pyrimidine-1,6,8-trione] | 107% | 104 nM
Cc1csc(N2CCN3C(=O)N(c4c(F)cc(C#Cc5ccccc5)cc4F)C(=O)CC3(C)C2=O)n1 (racemic) [Example 54, (9aRS)-7-[2,6-difluoro-4-(2-phenylethynyl)phenyl]-9a-methyl-2-(4-methylthiazol-2-yl)-4,9-dihydro-3H-pyrazino[1,2-c]pyrimidine-1,6,8-trione] | 97% | 48 nM
C[C@@]12CC(=O)N(c3c(F)cc(C#Cc4ccccc4)cc3F)C(=O)N1CCN(c1ccnc(Cl)c1)C2=O [Example 19, (9aS)-2-(2-chloro-4-pyridyl)-7-[2,6-difluoro-4-(2-phenylethynyl)phenyl]-9a-methyl-4,9-dihydro-3H-pyrazino[1,2-c]pyrimidine-1,6,8-trione] | 100% | 69 nM
Cc1cncc(N2CCN3C(=O)N(c4c(F)cc(C#Cc5ccccc5)cc4F)C(=O)CC3(C)C2=O)n1 (racemic) [Example 34, (9aRS)-7-[2,6-difluoro-4-(2-phenylethynyl)phenyl]-9a-methyl-2-(6-methylpyrazin-2-yl)-4,9-dihydro-3H-pyrazino[1,2-c]pyrimidine-1,6,8-trione] | 114% | 148 nM
CC12CC(=O)N(c3c(F)cc(C#Cc4ccccc4)cc3F)C(=O)N1CCN(c1nc(C#N)cs1)C2=O (racemic) [Example 55, 2-[(9aRS)-7-[2,6-difluoro-4-(2-phenylethynyl)phenyl]-9a-methyl-1,6,8-trioxo-4,9-dihydro-3H-pyrazino[1,2-c]pyrimidin-2-yl]thiazole-4-carbonitrile] | 94% | 77 nM
Cc1cc(N2CCN3C(=O)N(c4c(F)cc(C#Cc5ccccc5)cc4F)C(=O)CC3(C)C2=O)nc(C)n1 (racemic) [Example 29, (9aRS)-7-[2,6-difluoro-4-(2-phenylethynyl)phenyl]-2-(2,6-dimethylpyrimidin-4-yl)-9a-methyl-4,9-dihydro-3H-pyrazino[1,2-c]pyrimidine-1,6,8-trione] | 112% | 177 nM
C[C@@]12CC(=O)N(c3c(F)cc(C#Cc4ccccc4)cc3F)C(=O)N1CCN(CC(F)(F)F)C2=O [Example 81, (9aS)-7-[2,6-difluoro-4-(2-phenylethynyl)phenyl]-9a-methyl-2-(2,2,2-trifluoroethyl)-4,9-dihydro-3H-pyrazino[1,2-c]pyrimidine-1,6,8-trione] | 172% | 112 nM
CCOC(=O)CCCN1CCN2C(=O)N(c3c(F)cc(C#Cc4ccccc4)cc3F)C(=O)C[C@@]2(C)C1=O [Example 82, Ethyl 4-[(9aS)-7-[2,6-difluoro-4-(2-phenylethynyl)phenyl]-9a-methyl-1,6,8-trioxo-4,9-dihydro-3H-pyrazino[1,2-c]pyrimidin-2-yl]butanoate] | 134% | 201 nM
Cc1cncc(N2CCN3C(=O)N(c4c(F)cc(C#Cc5ccccc5)cc4F)C(=O)C[C@@]3(C)C2=O)c1 [Example 15, (9aS)-7-[2,6-difluoro-4-(2-phenylethynyl)phenyl]-9a-methyl-2-(5-methyl-3-pyridyl)-4,9-dihydro-3H-pyrazino[1,2-c]pyrimidine-1,6,8-trione] | 90% | 152 nM
COC[C@@]12CC(=O)N(c3c(F)cc(C#Cc4ccccc4)cc3F)C(=O)N1CCN(c1cccnc1)C2=O [Example 103, (9aR)-7-[2,6-difluoro-4-(2-phenylethynyl)phenyl]-9a-(methoxymethyl)-2-(3-pyridyl)-4,9-dihydro-3H-pyrazino[1,2-c]pyrimidine-1,6,8-trione] | 118% | 169 nM
C[C@@]12CC(=O)N(c3c(F)cc(C#Cc4ccccc4)cc3F)C(=O)N1CCN(c1ccccn1)C2=O [Example 5, (9aS)-7-[2,6-difluoro-4-(2-phenylethynyl)phenyl]-9a-methyl-2-(2-pyridyl)-4,9-dihydro-3H-pyrazino[1,2-c]pyrimidine-1,6,8-trione] | 92% | 46 nM
COc1cnc(N2CCN3C(=O)N(c4c(F)cc(C#Cc5ccccc5)cc4F)C(=O)C[C@@]3(C)C2=O)cn1 [Example 44, (9aS)-7-[2,6-difluoro-4-(2-phenylethynyl)phenyl]-2-(5-methoxypyrazin-2-yl)-9a-methyl-4,9-dihydro-3H-pyrazino[1,2-c]pyrimidine-1,6,8-trione] | 107% | 123 nM
COc1ccc(N2CCN3C(=O)N(c4c(F)cc(C#Cc5ccccc5)cc4F)C(=O)C[C@@]3(C)C2=O)cn1 [Example 23, (9aS)-7-[2,6-difluoro-4-(2-phenylethynyl)phenyl]-2-(6-methoxy-3-pyridyl)-9a-methyl-4,9-dihydro-3H-pyrazino[1,2-c]pyrimidine-1,6,8-trione] | 114% | 61 nM
C[C@@]12CC(=O)N(c3c(F)cc(C#Cc4ccccc4)cc3F)C(=O)N1CCN(Cc1cccc(F)c1)C2=O [Example 90, (9aS)-7-[2,6-difluoro-4-(2-phenylethynyl)phenyl]-2-[(3-fluorophenyl)methyl]-9a-methyl-4,9-dihydro-3H-pyrazino[1,2-c]pyrimidine-1,6,8-trione] | 109% | 187 nM
COc1ccc(N2CCN3C(=O)N(c4c(F)cc(C#Cc5ccccc5)cc4F)C(=O)CC3(C)C2=O)cn1 (racemic) [Example 22, (9aRS)-7-[2,6-difluoro-4-(2-phenylethynyl)phenyl]-2-(6-methoxy-3-pyridyl)-9a-methyl-4,9-dihydro-3H-pyrazino[1,2-c]pyrimidine-1,6,8-trione] | 106% | 105 nM
CC12CC(=O)N(c3c(F)cc(C#Cc4ccccc4)cc3F)C(=O)N1CCN(Cc1cccc(Cl)c1)C2=O (racemic) [Example 88, (9aRS)-2-[(3-chlorophenyl)methyl]-7-[2,6-difluoro-4-(2-phenylethynyl)phenyl]-9a-methyl-4,9-dihydro-3H-pyrazino[1,2-c]pyrimidine-1,6,8-trione] | 134% | 73 nM
CC12CC(=O)N(c3c(F)cc(C#Cc4ccccc4)cc3F)C(=O)N1CCN(c1ncccn1)C2=O (racemic) [Example 25, (9aRS)-7-[2,6-difluoro-4-(2-phenylethynyl)phenyl]-9a-methyl-2-pyrimidin-2-yl-4,9-dihydro-3H-pyrazino[1,2-c]pyrimidine-1,6,8-trione] | 122% | 135 nM
